Where “and” joins values, the source holds several entries; their conditions need not be identical. Identical values can stand only once. Like-named read-outs stand apart in the source and are kept apart here.
Tests used:
[1] = molecular target: T1, hMC4-R; assay: Competitive inhibition assay using [I125]-NDP-α-MSH, hMC4-R membranes; type: binding, human; settings: for attenuation of binding of α-MSH and AgRP to MC4-R: both ligands (NDP-α-MSH and AgRP), summary
T1 construct: expressed in transfected cells; host or cells: HEK-293
Experimental: (§1) Competitive inhibition assay using [1125]-NDP-α-MSH. A competitive inhibition binding assay was conducted using membranes prepared from HEK-293 cells transfected to express hMC3-R, hMC4-R or hMC5-R, and from B-16 mouse melanoma cells (containing MC1-R) using 0.2 to 0.4 nM [I^125]-NDP-α-MSH (New England Nuclear) in 50 mM HEPES buffer containing 1 mM MgCl2, 2 mM CaCl2, and 5 mM KCl, at pH 7.2. In certain experiments, HEK-293 cells transfected to express hMC1-R were also employed. The assay tube also contained a chosen concentration of the test compound of this invention, typically a 1 μM concentration, for determining inhibition of the binding of [^1125]-NDP-α-MSH to its receptor. Non-specific binding was measured by inhibition of binding of [I^125]-NDP-α-MSH in the assay with the presence of 1 μM α-MSH.
(§2) The assay mixture was incubated for 90 minutes at room temperature, then filtered and the membranes washed three times with ice cold buffer. The filter was dried and counted in a gamma counter for remaining radioactivity bound to the membranes. 100% specific binding was defined as the difference in radioactivity (cpm) bound to cell membranes in the absence and presence of 1 μM α-MSH. The cpm obtained in presence of test compounds were normalized with respect to 100% specific binding to determine the percent inhibition of [125]-NDP-α-MSH binding. Each assay was conducted in triplicate and the actual mean values are described, with results less than 0% reported as 0%.

[2] = system: T1, hMC4-R; assay: cAMP functional assay in HEK-293 cells expressing MC4-R (agonist, neutral antagonist/Schild); type: cell-based, human; settings: for intrinsic activity at MC4-R: NDP-α-MSH maximal stimulation = 1.0; for functional status at MC4-R: mostly at 1 μM
Experimental: General method for EC50 determination in functional activity assay. Functional evaluation of compounds at melanocortin receptors was performed by measuring the accumulation of intracellular cAMP in HEK-293 cells expressing hMC3-R, hMC4-R or hMC5-R, and in B-16 mouse melanoma cells expressing MC1-R. Cells suspended in Earle's Balanced Salt Solution containing 10 mM HEPES (pH 7.5), 5 mM MgCl2, 1 mM glutamine, 0.1% albumin and 0.6 mM 3-isobutyl-1-methyl-xanthine, a phosphodiesterase inhibitor, were plated in 96 well plates at a density of 0.5×10^5 cells per well. Cells were incubated with the test compounds in the presence or absence of α-MSH for 1 hour at 37° C. cAMP levels in the cell lysates were measured using an EIA kit (Amersham). Data analysis and EC50 values were determined using nonlinear regression analysis with Prism Graph-Pad software.
Functional status. The agonist/antagonist status with respect to MC1-R, MC-3R, MC4-R and MC5-R of certain compounds of the invention was determined.
Assay for agonist. Evaluation of the molecules to elicit a functional response in HEK-293 cells expressing MC4-R was accomplished by measuring the accumulation of intracellular cAMP following treatment. Confluent HEK-293 cells expressing MC4-R were detached by enzyme free cell suspension buffer. Cells were suspended in Earle's Balanced Salt Solution containing 10 mM HEPES (pH 7.5), 1 mM MgCl2, 1 mM glutamine, 0.5% albumin and 0.3 mM 3-isobutyl-1-methyl-xanthine (IBMX), a phosphodiesterase inhibitor. The cells were plated in 96 well plates at a density of 0.5×10^5 cells per well and pre-incubated for 30 minutes. The cells were then challenged with the test compounds dissolved in DMSO at a concentration range of 0.05-5000 nM in a total assay volume of 200 μL for 1 hour at 37° C. The concentration of DMSO was always held at 1% in the assay mixture. NDP-α-MSH was used as the reference agonist. At the end of the incubation period the cells were disrupted by the addition of 50 μL of lysis buffer from a cAMP EIA kit (Amersham). Complete rupture of the cells was obtained by pipetting the cells multiple times. cAMP levels in the cell lysates were measured after appropriate dilution using the EIA kit (Amersham) method. Data analysis and EC50 values were determined by using nonlinear regression analysis with Prism Graph-Pad software. […] FIG. 1 illustrates typical results, showing the stimulation of cAMP using the compound of Example 11 in HEK-293/MC4-R cells with comparison to NDP-α-MSH.
Assay for Neutral Antagonist. Compounds with a high affinity for binding to MC4-R membranes but with less potency in terms of cAMP accumulation (EC50>1000 nM) and low response ratio (<0.1) were analyzed for their ability to antagonize the stimulatory effect of the agonist NDP-α-MSH. These studies were carried out in HEK-293 cells expressing MC4-R. Cells were incubated with the compounds in the presence of the agonist NDP-α-MSH and the extent of antagonism was measured by the decrease in intracellular cAMP concentrations. Screening the compounds for antagonist activity was performed at a single concentration of NDP-α-MSH (1.0 nM) over a compound concentration range of 0.5-5000 nM.
Experimental details were similar to the analysis for agonistic activity described above. Briefly, cells were pre-incubated for 30 minutes with the test compounds at concentrations between 0.5 nM and 5000 nM. The cells were then stimulated with NDP-α-MSH at a concentration of 1 nM for 1 hour. For Schild's analysis, the interactions were studied using at least 3 concentrations of the compounds, separated by a log unit, over a full range of the agonist (0.005-5000 nM). cAMP levels were measured in the cell lysates after appropriate dilution. Nonlinear regression analysis with Prism Graph-Pad software was used for Schild analysis and to obtain EC50 values. pA2 values were derived from the Schild plot of the data.

[3] = molecular target: T2, hMC3-R; assay: Competitive inhibition assay using [I125]-NDP-α-MSH, hMC3-R membranes; type: binding, human; settings: read-out: Ki (nM) (NDP-α-MSH) MC3-R
T2 construct: expressed in transfected cells; host or cells: HEK-293
Experimental: as §1, §2

[4] = system: T1, hMC4-R; type: binding, human; settings: for Inhibition at 1 μM (AgRP) MC4-R: 1 μM compound
Experimental: Competitive binding assay using [I^125]-AgRP (83-132). Competitive binding studies using [I^125]-AgRP (83-132) were carried out on membranes isolated from cells expressing hMC4-R. The assay was performed in 96 well GF/B Millipore multiscreen filtration plates (MAFB NOB10) pre-coated with 0.5% bovine serum albumin (Fraction V). The assay mixture contained 25 mM HEPES buffer (pH 7.5) with 100 mM NaCl, 2 mM CaCl2, 2 mM MgCl2, 0.3 mM 1,10-phenanthroline, 0.5% bovine serum albumin, cell membranes, radioligand [I^125]-AgRP (83-132) (NEN), and increasing concentrations of compounds in a total volume of 200 μL. Binding was measured at radioligand concentrations of 0.2 nM. After incubating for 1 hour at 37° C., the reaction mixture was filtered and washed with an assay buffer containing 500 mM NaCl. The dried discs were punched out from the plate and counted on a gamma counter. Care was taken to limit the specific binding of the ligand to an amount not exceeding 10% of the counts added to the reaction mixture. Data were analyzed using the Prism Graph-Pad curve fitting software.

[5] = molecular target: T3, hMC5-R; assay: Competitive inhibition assay using [I125]-NDP-α-MSH, hMC5-R membranes; type: binding, human; settings: read-out: Ki (nM) (NDP-α-MSH) MC5-R
T3 construct: expressed in transfected cells; host or cells: HEK-293
Experimental: as §1, §2

[6] = molecular target: T4, MC1-R; assay: Competitive inhibition assay using [I125]-NDP-α-MSH, MC1-R membranes; type: binding, mouse; settings: for Inhibition at 1 μM (NDP-α-MSH) MC1-R: 1 μM compound
T4 construct: other: 1 μM compound
Experimental: as §1, §2

[7] = MC4-R membranes, Table 1, read-out: Ki (nM) I125-NPD-α-MSH
[8] = MC4-R, Table 1 in μM, read-out: EC50
[9] = cAMP assay, read-out: EC50 (nM) at MC4-R
[10] = MC4-R membranes, Table 1, read-out: Ki (nM) I125-AgRP

| Compound | Ki [1, 7] [nM] | attenuation of binding of α-MSH and AgRP to MC4-R [1] | Ki ([1]; read-out: Ki (nM) (NDP-α-MSH) MC4-R) | functional status (pAg, Ag, Antag, Inactive) ([2]; MC4-R, Table 1) | EC50 [2, 8] [µM] | intrinsic activity at MC4-R [2] | functional status at MC4-R ([2]; cAMP assay) | EC50 [2, 9] [µM] | Ki [3] [nM] | Inhibition at 1 μM (AgRP) MC4-R [4] [%] | Ki [4, 10] [nM] | Ki ([4]; read-out: Ki (nM) (AgRP) MC4-R) | Ki [5] [nM] | Ki [6] [nM] | Inhibition at 1 μM (NDP-α-MSH) MC1-R [6] [%] | EC50 ([2]; MC4-R, Table 1, read-out: EC50) [µM] | EC50 ([2]; cAMP assay, printed in μm, read-out: EC50 at MC4-R) [µM] |
| --- | --- | --- | --- | --- | --- | --- | --- | --- | --- | --- | --- | --- | --- | --- | --- | --- | --- |
| 2-naphthylacetyl-1-amino-1-cyclohexane-carbonyl-D-Phe(4-Cl)-Arg-Trp-NH2 [Example 25] | 40 | attenuate the binding of both α-MSH and AgRP to MC4-R | 40 | pAg (“pAg” means partial agonist) | > 1 | 0.2 | partial agonist (intrinsic activity between 0.1 (10%) and 0.7 (70%) is classified as a partial agonist) | > 1 | 453 | 91 | 50 | 50 | 300 | – | – | – | – |
| NCCCC[C@H]1C(=O)N(CCc2ccc3ccccc3c2)CCN1C(=O)[C@@H](Cc1ccc(Cl)cc1Cl)NC(=O)[C@@H]1CC[C@H](c2ccccc2)N1 [Example 19, (2S,5R)-5-Phenyl-pyrrolidine-2-carboxylic acid [(R)-2-[(S)-2-(4-amino-butyl)-4-(2-naphthalen-2-yl-ethyl)-3-oxo-piperazin-1-yl]-1-(2,4-dichloro-benzyl)-2-oxo-ethyl]-amide] | – | attenuate the binding of both α-MSH and AgRP to MC4-R | – | pAg (“pAg” means partial agonist) | – | 0.19 and 0.2 | – | 0.959 | 855 | 95 | 63 | 63 | – | 1370 | 0 | 0.959 | – |
| N=C(N)NCCC[C@H]1C(=O)N2C(CC[C@@H]2COc2ccc3ccccc3c2)N1C(=O)[C@@H](Cc1ccc(Cl)cc1Cl)NC(=O)[C@@H]1CC[C@H](c2ccccc2)N1 (stereo partly drawn) [Example 20, (2S,5R)-5-Phenyl-pyrrolidine-2-carboxylic acid {(R)-1-(2,4-dichloro-benzyl)-2-[(2S,5R)-2-(3-guanidino-propyl)-5-(naphthalen-2-yloxymethyl)-3-oxo-hexahydro-pyrrolo[1,2-a]imidazol-1-yl]-2-oxo-ethyl}-amide] | – | – | – | Inactive | – | – | inactive | – | 312 | 99 | 23 | 23 | – | 1040 | 16 | > 1 | – |
| NCCCC[C@H]1C(=O)N(CCc2ccc3ccccc3c2)CCN1C(=O)[C@@H](Cc1ccc(Cl)cc1Cl)NC(=O)c1ccc(Oc2ccccc2)cc1 [Example 22, N—[(R)-2-[(S)-2-(4-Amino-butyl)-4-(2-naphthalen-2-yl-ethyl)-3-oxo-piperazin-1-yl]-1-(2,4-dichloro-benzyl)-2-oxo-ethyl]-4-phenoxy-benzamide] | – | – | – | Inactive | – | – | inactive | – | – | 100 | 0.9 | 0.9 | – | – | – | > 1 | – |
| Cc1cc(Cl)ccc1C[C@@H](N)C(=O)N1C[C@@H](C)N(CCc2ccc3ccccc3c2)C[C@@H]1CCCNC(=N)N [Example 27, N-{3-[1-[2(R)-Amino-3-(2-methyl, 4-chloro-phenyl)-propionyl]-5(R)-methyl-4-(2-naphthaen-2-yl-ethy)-piperazin-2(S)-yl]-propyl}-guanidine] | 29 | – | – | pAg (“pAg” means partial agonist) | – | 0.3 | partial agonist (intrinsic activity between 0.1 (10%) and 0.7 (70%) is classified as a partial agonist) | 0.214 | – | – | – | – | – | – | – | 0.214 | – |
| C[C@@H]1CN(C(=O)[C@H](N)Cc2ccc(Cl)cc2)[C@@H](CCCNC(=N)N)CN1CCc1ccc2ccccc2c1 [Example 29, N-{3-[1-[2(R)-Amino-3-(4-CHLORO-phenyl)-propionyl]-5(R)-methyl-4-(2-naphthalen-2-yl-ethyl)-piperazin-2(S)-yl]-propyl}-guanidine] | – | attenuate the binding of both α-MSH and AgRP to MC4-R | – | Ag | – | 0.8 | agonist (intrinsic activity of 0.7 (70%) or higher is classified as an agonist) | 0.252 | – | 97 | – | 15 | – | – | – | 0.252 | – |
| NH2—(CH2)6—C(═O)-Ser(Bzl)-D-Phe(4-Cl)-Arg-Trp-Ala-NH2 [Example 16] | – | – | – | – | > 1 | – | functionally inactive | – | 35 | – | – | – | – | 142 | 60 | – | > 1 |

From US20090076029A1 (Palatin Technologies, Inc., priority 2007, published 2009)
